Test results published in US6358885B1, “Substituted phenylheterocyclic herbicides” (Mississippi State University, priority 1992, dated 2002).

Legend:
sugar beet = assay: Test B preemergence/postemergence greenhouse plant response rating 0 to 10; assay type: in vivo, Beta vulgaris; details: 0 to 10 scale
Outline: (§1)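 Postemergence treatment of plants two to eighteen cm tall ran alongside preemergence treatment of planted seed, each using compound in a non-phytotoxic solvent.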

bedstraw [1] = assay: Test C preemergence/postemergence greenhouse plant response rating 0 to 100; assay type: in vivo, Galium aparine; details: for Plant response rating, Bedstraw: 62 g/ha, 0 to 100 scale
Outline: (§2)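 Compounds in non-phytotoxic solvent applied preemergence to sandy loam one day after planting, postemergence at the 1–4 leaf stage, or to ~2.5 cm floodwater over silt loam.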

giant foxtail = assay: as above; assay type: in vivo, Setaria faberii; details: for Plant response rating, Giant foxtail: 62 g/ha, 0 to 100 scale
Outline: as §2

corn [2] = assay: as above; assay type: in vivo, Zea mays; details: for Plant response rating, Corn: 62 g/ha, 0 to 100 scale
Outline: as §2

cotton = assay: as above; assay type: in vivo, Gossypium hirsutum; details: for Plant response rating, Cotton: 62 g/ha, 0 to 100 scale
Outline: as §2

bedstraw [3] = assay: Test B preemergence/postemergence greenhouse plant response rating 0 to 10; assay type: in vivo, Galium aparine; details: 0 to 10 scale
Outline: as §1

morningglory = assay: Test C preemergence/postemergence greenhouse plant response rating 0 to 100; assay type: in vivo, Ipomoea hederacea; details: for Plant response rating, Morningglory: 62 g/ha, 0 to 100 scale
Outline: as §2

sorghum = assay: as above; assay type: in vivo, Sorghum bicolor
Outline: as §2

chickweed = assay: Test B preemergence/postemergence greenhouse plant response rating 0 to 10; assay type: in vivo, Stellaria media; details: 0 to 10 scale
Outline: as §1

corn [4] = assay: as above; assay type: in vivo, Zea mays; details: 0 to 10 scale
Outline: as §1

wild buckwheat = assay: as above; assay type: in vivo, Polygonum convolvulus; details: 0 to 10 scale
Outline: as §1

wheat = assay: Test C preemergence/postemergence greenhouse plant response rating 0 to 100; assay type: in vivo, Triticum aestivum
Outline: as §2

velvetleaf = assay: as above; assay type: in vivo, Abutilon theophrasti
Outline: as §2

downy brome = assay: as above; assay type: in vivo, Bromus tectorum; details: for Plant response rating Downy Brome: 62 g/ha, 0 to 100 scale
Outline: as §2

duck salad = assay: Test C flood test plant response rating 0 to 100; assay type: in vivo, Heteranthera limosa
Outline: as §2

barnyardgrass = assay: Test C flood test plant response rating 0 to 100; assay type: in vivo, Echinochloa crus-galli
Outline: as §2

wild oat = assay: Test C preemergence/postemergence greenhouse plant response rating 0 to 100; assay type: in vivo, Avena fatua
Outline: as §2

[5] = POSTEMERGENCE, 62 g/ha, 0 to 100 scale
[6] = POSTEMERGENCE section, flood test, Rate 1 g/ha
[7] = Rate 16 g/ha, under POSTEMERGENCE head (flood test species)
[8] = flood test species listed under POSTEMERGENCE, 62 g/ha, 0 to 100 scale

CC(C)Oc1cc(-c2nn3c(c2Br)CCCC3)c(F)cc1Cl [Compound 38]
Plant response rating, Sugar beet (sugar beet; POSTEMERGENCE, Rate 50 g/ha): 10 | Plant response rating, Sugar beet (sugar beet; PREEMERGENCE, Rate 50 g/ha): 8 | Plant response rating, Sugar beet (sugar beet; Rate 200 g/ha, POSTEMERGENCE): 10 | Plant response rating, Sugar beet (sugar beet; Rate 200 g/ha, PREEMERGENCE): 10 | Plant response rating, Bedstraw (bedstraw [1]; POSTEMERGENCE): 90 | Plant response rating (0 to 100), Bedstraw (bedstraw [1]; POSTEMERGENCE, Rate 1 g/ha): 20 | Plant response rating, Bedstraw (bedstraw [1]; PREEMERGENCE): 50 | Plant response rating (0 to 100), Bedstraw (bedstraw [1]; PREEMERGENCE, Rate 1 g/ha): 0 | Plant response rating (0 to 100), Bedstraw (bedstraw [1]; PREEMERGENCE, Rate 4 g/ha): 0 | Plant response rating (0 to 100), Bedstraw (bedstraw [1]; Rate 4 g/ha, POSTEMERGENCE): 50 | Plant response rating (0 to 100), Bedstraw (bedstraw [1]; Rate 16 g/ha, POSTEMERGENCE): 50 | Plant response rating (0 to 100), Bedstraw (bedstraw [1]; Rate 16 g/ha, PREEMERGENCE): 20 | Plant response rating, Giant foxtail (giant foxtail; POSTEMERGENCE): 50 | Plant response rating (0 to 100), Giant foxtail (giant foxtail; POSTEMERGENCE, Rate 1 g/ha): 20 | Plant response rating (0 to 100), Giant foxtail (giant foxtail; POSTEMERGENCE, Rate 4 g/ha): 30 | Plant response rating, Giant foxtail (giant foxtail; PREEMERGENCE): 0 | Plant response rating (0 to 100), Giant foxtail (giant foxtail; PREEMERGENCE, Rate 1 g/ha): 0 | Plant response rating (0 to 100), Giant foxtail (giant foxtail; PREEMERGENCE, Rate 4 g/ha): 0 | Plant response rating (0 to 100), Giant foxtail (giant foxtail; Rate 16 g/ha, POSTEMERGENCE): 40 | Plant response rating (0 to 100), Giant foxtail (giant foxtail; Rate 16 g/ha, PREEMERGENCE): 0 | Plant response rating, Corn (corn [2]; POSTEMERGENCE): 50 | Plant response rating (0 to 100), Corn (corn [2]; POSTEMERGENCE, Rate 1 g/ha): 10 | Plant response rating, Corn (corn [2]; PREEMERGENCE): 0 | Plant response rating (0 to 100), Corn (corn [2]; PREEMERGENCE, Rate 1 g/ha): 0 | Plant response rating (0 to 100), Corn (corn [2]; PREEMERGENCE, Rate 4 g/ha): 0 | Plant response rating (0 to 100), Corn (corn [2]; Rate 4 g/ha, POSTEMERGENCE): 20 | Plant response rating (0 to 100), Corn (corn [2]; Rate 16 g/ha, POSTEMERGENCE): 40 | Plant response rating (0 to 100), Corn (corn [2]; Rate 16 g/ha, PREEMERGENCE): 0 | Plant response rating, Cotton (cotton; POSTEMERGENCE): 100 | Plant response rating (0 to 100), Cotton (cotton; POSTEMERGENCE, Rate 1 g/ha): 60 | Plant response rating (0 to 100), Cotton (cotton; POSTEMERGENCE, Rate 4 g/ha): 80 | Plant response rating, Cotton (cotton; PREEMERGENCE): 0 | Plant response rating (0 to 100), Cotton (cotton; PREEMERGENCE, Rate 1 g/ha): 0 | Plant response rating (0 to 100), Cotton (cotton; PREEMERGENCE, Rate 4 g/ha): 0 | Plant response rating (0 to 100), Cotton (cotton; Rate 16 g/ha, POSTEMERGENCE): 90 | Plant response rating (0 to 100), Cotton (cotton; Rate 16 g/ha, PREEMERGENCE): 0 | Plant response rating, Bedstraw (bedstraw [3]; POSTEMERGENCE, Rate 200 g/ha): 10 | Plant response rating, Bedstraw (bedstraw [3]; PREEMERGENCE, Rate 50 g/ha): 0 | Plant response rating, Bedstraw (bedstraw [3]; Rate 200 g/ha, PREEMERGENCE): 7 | Plant response rating, Morningglory (morningglory; POSTEMERGENCE): 95 | Plant response rating (0 to 100), Morningglory (morningglory; POSTEMERGENCE, Rate 1 g/ha): 20 | Plant response rating (0 to 100), Morningglory (morningglory; POSTEMERGENCE, Rate 4 g/ha): 30 | Plant response rating, Morningglory (morningglory; PREEMERGENCE): 20 | Plant response rating (0 to 100), Morningglory (morningglory; PREEMERGENCE, Rate 1 g/ha): 0 | Plant response rating (0 to 100), Morningglory (morningglory; PREEMERGENCE, Rate 4 g/ha): 0 | Plant response rating (0 to 100), Morningglory (morningglory; Rate 16 g/ha, POSTEMERGENCE): 95 | Plant response rating (0 to 100), Morningglory (morningglory; Rate 16 g/ha, PREEMERGENCE): 0 | Plant response rating, Sorghum (sorghum; [5]): 70 | Plant response rating (0 to 100), Sorghum (sorghum; POSTEMERGENCE, Rate 1 g/ha): 20 | Plant response rating (0 to 100), Sorghum (sorghum; POSTEMERGENCE, Rate 4 g/ha): 30 | Plant response rating (0 to 100), Sorghum (sorghum; PREEMERGENCE, Rate 1 g/ha): 0 | Plant response rating (0 to 100), Sorghum (sorghum; PREEMERGENCE, Rate 4 g/ha): 0 | Plant response rating (0 to 100), Sorghum (sorghum; Rate 16 g/ha, POSTEMERGENCE): 60 | Plant response rating (0 to 100), Sorghum (sorghum; Rate 16 g/ha, PREEMERGENCE): 10 | Plant response rating, Chickweed (chickweed; POSTEMERGENCE, Rate 50 g/ha): 9 | Plant response rating, Chickweed (chickweed; POSTEMERGENCE, Rate 200 g/ha): 10 | Plant response rating, Chickweed (chickweed; PREEMERGENCE, Rate 50 g/ha): 0 | Plant response rating, Chickweed (chickweed; Rate 200 g/ha, PREEMERGENCE): 0 | Plant response rating, Corn (corn [4]; POSTEMERGENCE, Rate 50 g/ha): 4 | Plant response rating, Corn (corn [4]; POSTEMERGENCE, Rate 200 g/ha): 5 | Plant response rating, Corn (corn [4]; PREEMERGENCE, Rate 50 g/ha): 0 | Plant response rating, Corn (corn [4]; Rate 200 g/ha, PREEMERGENCE): 2 | Plant response rating, Wild buckwheat (wild buckwheat; POSTEMERGENCE, Rate 50 g/ha): 10 | Plant response rating, Wild buckwheat (wild buckwheat; PREEMERGENCE, Rate 50 g/ha): 8 | Plant response rating, Wild buckwheat (wild buckwheat; Rate 200 g/ha, POSTEMERGENCE): 10 | Plant response rating, Wild buckwheat (wild buckwheat; Rate 200 g/ha, PREEMERGENCE): 10 | Plant response rating, Wheat (wheat; [5]): 50 | Plant response rating (0 to 100), Wheat (wheat; POSTEMERGENCE, Rate 1 g/ha): 0 | Plant response rating (0 to 100), Wheat (wheat; POSTEMERGENCE, Rate 4 g/ha): 20 | Plant response rating (0 to 100), Wheat (wheat; PREEMERGENCE, Rate 1 g/ha): 0 | Plant response rating (0 to 100), Wheat (wheat; PREEMERGENCE, Rate 4 g/ha): 0 | Plant response rating (0 to 100), Wheat (wheat; Rate 16 g/ha, POSTEMERGENCE): 30 | Plant response rating (0 to 100), Wheat (wheat; Rate 16 g/ha, PREEMERGENCE): 0 | Plant response rating, Velvetleaf (velvetleaf; [5]): 90 | Plant response rating (0 to 100), Velvetleaf (velvetleaf; POSTEMERGENCE, Rate 1 g/ha): 10 | Plant response rating (0 to 100), Velvetleaf (velvetleaf; POSTEMERGENCE, Rate 4 g/ha): 10 | Plant response rating (0 to 100), Velvetleaf (velvetleaf; PREEMERGENCE, Rate 1 g/ha): 0 | Plant response rating (0 to 100), Velvetleaf (velvetleaf; PREEMERGENCE, Rate 4 g/ha): 20 | Plant response rating (0 to 100), Velvetleaf (velvetleaf; Rate 16 g/ha, POSTEMERGENCE): 80 | Plant response rating (0 to 100), Velvetleaf (velvetleaf; Rate 16 g/ha, PREEMERGENCE): 100 | Plant response rating Downy Brome (downy brome; POSTEMERGENCE): 40 | Plant response rating (0 to 100), Downy Brome (downy brome; POSTEMERGENCE, Rate 1 g/ha): 10 | Plant response rating (0 to 100), Downy Brome (downy brome; POSTEMERGENCE, Rate 4 g/ha): 20 | Plant response rating Downy Brome (downy brome; PREEMERGENCE): 0 | Plant response rating (0 to 100), Downy Brome (downy brome; PREEMERGENCE, Rate 1 g/ha): 0 | Plant response rating (0 to 100), Downy Brome (downy brome; PREEMERGENCE, Rate 4 g/ha): 0 | Plant response rating (0 to 100), Downy Brome (downy brome; Rate 16 g/ha, POSTEMERGENCE): 30 | Plant response rating (0 to 100), Downy Brome (downy brome; Rate 16 g/ha, PREEMERGENCE): 0 | Plant response rating (0 to 100), Duck salad (duck salad; [6]): 0 | Plant response rating (0 to 100), Duck salad (duck salad; POSTEMERGENCE section, flood test, Rate 4 g/ha): 0 | Plant response rating (0 to 100), Duck salad (duck salad; [7]): 20 | Plant response rating Duck salad (duck salad; [8]): 50 | Plant response rating (0 to 100), Barnyardgrass 2 (barnyardgrass; [6]): 10 | Plant response rating (0 to 100), Barnyardgrass 2 (barnyardgrass; Rate 4 g/ha, under POSTEMERGENCE head (flood test species)): 20 | Plant response rating (0 to 100), Barnyardgrass 2 (barnyardgrass; [7]): 75 | Plant response rating Barnyardgrass 2 (barnyardgrass; [8]): 100 | Plant response rating, Wild oat (wild oat; [5]): 50 | Plant response rating (0 to 100), Wild oat (wild oat; POSTEMERGENCE, Rate 1 g/ha): 0 | Plant response rating (0 to 100), Wild oat (wild oat; POSTEMERGENCE, Rate 4 g/ha): 10 | Plant response rating (0 to 100), Wild oat (wild oat; PREEMERGENCE, Rate 1 g/ha): 0 | Plant response rating (0 to 100), Wild oat (wild oat; PREEMERGENCE, Rate 4 g/ha): 0 | Plant response rating (0 to 100), Wild oat (wild oat; Rate 16 g/ha, POSTEMERGENCE): 30 | Plant response rating (0 to 100), Wild oat (wild oat; Rate 16 g/ha, PREEMERGENCE): 0
